Experimental findings from the supplement of paper PMC10326909 are described below.

A short description of the data set: ESI positive response factor (isotope-corrected peak area per molar concentration) in SFC/ESI/HRMS (area units per M); higher = higher ionization efficiency.

SMILES strings stand for the structures.
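Also: standards in acetonitrile/water run in triplicate on a zwitterionic HILIC column, CO2–methanol gradient containing 20 mmol/L ammonium acetate, postcolumn makeup flow, Orbitrap full-scan detection.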

Consider `CN(C)CCC=C1c2ccccc2CCc2ccccc21` [Amitriptyline], for which the “ESI positive response factor” value is 4.1e+17 (0.035 µM), 3.69e+17 (0.0875 µM), 4.36e+17 (0.175 µM) and 4.54e+17 (0.35 µM).
For `CCOc1nc2cccc(C(=O)O)c2n1Cc1ccc(-c2ccccc2-c2nnn[nH]2)cc1` [Candesartan], the “ESI positive response factor” value by setting is: (0.0175 µM) 5.17e+16; (0.035 µM) 8.14e+16; (0.0875 µM) 8.12e+16; (0.175 µM) 8.2e+16; (0.35 µM) 8.92e+16; (0.875 µM) 9.01e+16. In addition, the “ESI positive response factor” value (1.75 µM) turned out to be 8.46e+16.
For the compound `N[C@@H](Cc1ccc(O)cc1)C(=O)O` [L-Tyrosine], the “ESI positive response factor” value by setting is: (0.061 µM) 2.58e+15; (0.122 µM) 2.67e+15; (0.244 µM) 3.05e+15.
As for `O=c1nc2[nH][nH]cc-2c(=O)[nH]1` [Oxypurinol], the “ESI positive response factor” value worked out at 5.5e+14 (0.875 µM) and 4.78e+14 (1.75 µM).
Take `CCOC(=O)NCCOc1ccc(Oc2ccccc2)cc1` [Fenoxycarb]: the “ESI positive response factor” value is 5.41e+17 (0.0175 µM), 5.89e+17 (0.035 µM) and 5.34e+17 (0.0875 µM).
For `OCCN(CCO)CCO` [Triethanolamine], the “ESI positive response factor” value (0.0175 µM) was 8.84e+16; the “ESI positive response factor” value (0.035 µM) was found to be 8.88e+16; the “ESI positive response factor” value (0.0875 µM) turned out to be 8.78e+16; the “ESI positive response factor” value (0.175 µM) came to 8.76e+16; the “ESI positive response factor” value (0.35 µM) was 8.66e+16.
Turning to `COc1nc(C)nc(NC(=O)NS(=O)(=O)c2ccccc2Cl)n1` [Chlorsulfuron], the “ESI positive response factor” value came out at 4.22e+16 (0.035 µM); 4.88e+16 (0.0875 µM); 5.05e+16 (0.175 µM); 5.61e+16 (0.35 µM); 5.75e+16 (0.875 µM); 5.77e+16 (1.75 µM).
`c1ccc2[nH]nnc2c1` [1H-Benzotriazol]: the “ESI positive response factor” value reads like this: (0.035 µM) 7.96e+15; (0.0875 µM) 1.11e+16; (0.175 µM) 1.18e+16; (0.35 µM) 1.37e+16.
Take `C[N+]1(C)[C@H]2CC(OC(=O)C(CO)c3ccccc3)C[C@H]1[C@H]1O[C@H]12` (stereo partly specified) [Methyl scopolamine]: the “ESI positive response factor” value is, setting by setting: (0.0175 µM) 6.75e+17; (0.035 µM) 8.31e+17; (0.0875 µM) 7.49e+17.
Turning to `O=C(O)C(c1ccccc1)C1CCCCN1` (stereo unspecified) [Ritalinic acid], the “ESI positive response factor” value is, setting by setting: (0.035 µM) 1.26e+17; (0.0875 µM) 1.24e+17; (0.175 µM) 1.12e+17; (0.35 µM) 1.31e+17; (0.875 µM) 1.17e+17; (1.75 µM) 1.26e+17.
Turning to `Cn1c(N)c(NC=O)c(=O)n(C)c1=O` [6-Amino-1,3dimethyl-5-(formylamino)uracil], the “ESI positive response factor” value reads like this: (0.0875 µM) 8.08e+14; (0.35 µM) 2.17e+15; (0.875 µM) 2.09e+15; (1.75 µM) 2.18e+15.
`CCOP(=O)(OCC)OC(=CCl)c1ccc(Cl)cc1Cl` [Chlorfenvinphos]: the “ESI positive response factor” value (0.0175 µM) worked out at 2.81e+17; the “ESI positive response factor” value (0.035 µM) stood at 3.28e+17; the “ESI positive response factor” value (0.0875 µM) was 3.25e+17; the “ESI positive response factor” value (0.175 µM) came to 2.98e+17; the “ESI positive response factor” value (0.35 µM) was 4.34e+17.
For `C1CN(CCOCCN2CCOCC2)CCO1` [4,4'-(Oxydi-2,1-ethanediyl)bismorpholine], the “ESI positive response factor” value came to 4.89e+17 (0.0175 µM); 1.92e+17 (0.0875 µM); 3.18e+17 (0.175 µM); 3.23e+17 (0.35 µM); 4.13e+17 (0.875 µM); 3.43e+17 (1.75 µM).
As to `N[C@@H](Cc1ccccc1)C(=O)O` [L-Phenylalanin], the “ESI positive response factor” value is, setting by setting: (0.122 µM) 1.51e+16; (0.244 µM) 1.44e+16; (0.61 µM) 1.27e+16.
